*1 amine or outer side, *2 acyl side, *3 side chain or, on linkers, in order; H or OH if unused. Where a SMILES comes first, the peptide text is derived from it. The star is where a group is joined. AMC = Cc1cc(=O)oc2cc(N*)ccc12; Suc = O=C(CCC(=O)[*:2])[*:1]
Target: 20S proteasome (Oryctolagus cuniculus, UniProt G1T4Q9)
Experiment: fluorogenic chymotrypsin-like activity assay
Assay type: biochemical
Conditions: chymotrypsin-like site; control incubation without added SAM/SAH

Structure (SMILES): Cc1cc(=O)oc2cc(NC(=O)[C@H](Cc3ccc(O)cc3)NC(=O)[C@@H](NC(=O)[C@H](CC(C)C)NC(=O)[C@H](CC(C)C)NC(=O)CCC(=O)O)C(C)C)ccc12 [Suc-LLVY-AMC] (Suc-LLVY-{AMC})
- fluorogenic chymotrypsin-like activity assay: activity was detected in vitro using the fluorogenic substrate Suc-LLVY-AMC

From PMC2812660 (Biochemical and biophysical research communications, 2009)
